Measurements published in patent US4061753A, “Treating psoriasis with transient pro-drug forms of xanthine derivatives” (INTERx Research Corporation, priority 1976, dated 1977).
In brackets after ≈: the same amount, converted by molar mass.

How the values were obtained:
[1] = Partition Coefficient Studies (water solubility, heptane solubility, water/heptane partition)
[2] = Stability of the 7-hydroxymethyl derivative in water; type: physicochemical
[3] = e.g., heptane; cited from earlier work
phosphodiesterase = details: Sutherland and Rall 1958; cited from earlier work
[4] = heptane, organic solvent or mixture

Row | SMILES | solubility [1, 4] | solubility ([1]; water) | Water/Heptane partition coefficient [1] | further results
1 | CCCC(=O)OCn1cnc2c1c(=O)n(C)c(=O)n2C [C3 H7, 7-Butanoyloxymethyl-theophylline] | 0.65 mg/mL (≈ 2.32 mM) | 3.89 mg/mL (≈ 13.9 mM) | 6.30 | –
2 | CCCCCCCC(=O)OCn1cnc2c1c(=O)n(C)c(=O)n2C [C7 H15, 7-Octanoyloxymethyl-theophylline] | 0.52 mg/mL (≈ 1.55 mM) | 0.12 mg/mL (≈ 0.357 mM) | 0.06 | –
3 | Cn1c(=O)c2c(ncn2CO)n(C)c1=O [7-hydroxymethyl derivative, 7-hydroxymethyl theophylline] | – | – | – | stability in water [2]: extremely unstable in water
4 | Cn1c(=O)c2c(ncn2COC(=O)C(C)(C)C)n(C)c1=O [C(CH3)3, 7-Pivalyloxymethyl-theophylline] | 1.55 mg/mL (≈ 5.27 mM) | 2.01 mg/mL (≈ 6.83 mM) | 1.11 | –
5 | CN(C)CC(=O)OCn1cnc2c1c(=O)n(C)c(=O)n2C | – | > 1000 mg/mL | – | Heptane (solubility) ([1]; heptane): < 10 mg/500 ml
6 | Cn1c(=O)c2[nH]cnc2n(C)c1=O [theophylline] | – | – | – | solubility in lipid-like solvents [3]: almost insoluble; effect on degradation of cyclic AMP by inhibiting phosphodiesterase activity (phosphodiesterase): decrease the degradation of cyclic AMP by inhibiting phosphodiesterase activity
7 | CCC(=O)OCn1cnc2c1c(=O)n(C)c(=O)n2C [C2 H5, 7-Propionyloxymethyl-theophylline] | 0.18 mg/mL (≈ 0.676 mM) | 3.87 mg/mL (≈ 14.5 mM) | 32.0 | –
8 | CCN(CC)C(=O)CCC(=O)OCn1cnc2c1c(=O)n(C)c(=O)n2C | 0.17 mg/mL (≈ 0.465 mM) | 26.3 mg/mL (≈ 72 mM) | – | –
9 | CCCCCC(=O)OCn1cnc2c1c(=O)n(C)c(=O)n2C [C5 H11, 7-Hexanoyloxymethyl-theophylline] | 2.26 mg/mL (≈ 7.33 mM) | 0.11 mg/mL (≈ 0.357 mM) | 0.42 | –
